# Key:
# [1] = Binding affinity to 5'-GCCCGGGG-3' DNA hairpin assessed as change in fluorescence intensity at 1 uM after 45 mins by fluorescence quenching analysis relative to control
# [2] = Binding affinity to 5'-CCGCCGCG-3' DNA hairpin assessed as change in fluorescence intensity at 1 uM after 45 mins by fluorescence quenching analysis relative to control
# [3] = Binding affinity to 5'-CCCGGCCG-3' DNA hairpin assessed as change in fluorescence intensity at 1 uM after 45 mins by fluorescence quenching analysis relative to control
# [4] = Binding affinity to 5'-CCCCCGGC-3' DNA hairpin assessed as change in fluorescence intensity at 1 uM after 45 mins by fluorescence quenching analysis relative to control
# [5] = Binding affinity to 5'-GCGCCGCG-3' DNA hairpin assessed as change in fluorescence intensity at 1 uM after 45 mins by fluorescence quenching analysis relative to control
# [6] = Binding affinity to 5'-CCCGCGGG-3' DNA hairpin assessed as change in fluorescence intensity at 1 uM after 45 mins by fluorescence quenching analysis relative to control
# [7] = Binding affinity to 5'-CGGCCGCG-3' DNA hairpin assessed as change in fluorescence intensity at 1 uM after 45 mins by fluorescence quenching analysis relative to control
# [8] = Binding affinity to 5'-CCGCCCGG-3' DNA hairpin assessed as change in fluorescence intensity at 1 uM after 45 mins by fluorescence quenching analysis relative to control
# [9] = Binding affinity to 5'-CCCCCGCC-3' DNA hairpin assessed as change in fluorescence intensity at 1 uM after 45 mins by fluorescence quenching analysis relative to control
# [10] = Binding affinity to 5'-CGCCCGGC-3' DNA hairpin assessed as change in fluorescence intensity at 1 uM after 45 mins by fluorescence quenching analysis relative to control
# [11] = Binding affinity to 5'-GCGCGGGC-3' DNA hairpin assessed as change in fluorescence intensity at 1 uM after 45 mins by fluorescence quenching analysis relative to control
# [12] = Binding affinity to 5'-GGCCGCGC-3' DNA hairpin assessed as change in fluorescence intensity at 1 uM after 45 mins by fluorescence quenching analysis relative to control
# [13] = Binding affinity to 5'-CGGGCGCC-3' DNA hairpin assessed as change in fluorescence intensity at 1 uM after 45 mins by fluorescence quenching analysis relative to control
# [14] = Binding affinity to 5'-CGCGGGGC-3' DNA hairpin assessed as change in fluorescence intensity at 1 uM after 45 mins by fluorescence quenching analysis relative to control
# [15] = Binding affinity to 5'-GGGGCGCG-3' DNA hairpin assessed as change in fluorescence intensity at 1 uM after 45 mins by fluorescence quenching analysis relative to control
# [16] = Binding affinity to 5'-CCCCGCCG-3' DNA hairpin assessed as change in fluorescence intensity at 1 uM after 45 mins by fluorescence quenching analysis relative to control
# [17] = Binding affinity to 5'-CGCCCGGG-3' DNA hairpin assessed as change in fluorescence intensity at 1 uM after 45 mins by fluorescence quenching analysis relative to control
# [18] = Binding affinity to 5'-CGGCGGCG-3' DNA hairpin assessed as change in fluorescence intensity at 1 uM after 45 mins by fluorescence quenching analysis relative to control
# [19] = Binding affinity to 5'-GGCCGGCC-3' DNA hairpin assessed as change in fluorescence intensity at 1 uM after 45 mins by fluorescence quenching analysis relative to control
# [20] = Binding affinity to 5'-CCGGGGCC-3' DNA hairpin assessed as change in fluorescence intensity at 1 uM after 45 mins by fluorescence quenching analysis relative to control
# [21] = Binding affinity to 5'-GCGGGGCG-3' DNA hairpin assessed as change in fluorescence intensity at 1 uM after 45 mins by fluorescence quenching analysis relative to control
# [22] = Binding affinity to 5'-GCCGCCGG-3' DNA hairpin assessed as change in fluorescence intensity at 1 uM after 45 mins by fluorescence quenching analysis relative to control
# [23] = Binding affinity to 5'-CCGGCGCC-3' DNA hairpin assessed as change in fluorescence intensity at 1 uM after 45 mins by fluorescence quenching analysis relative to control
# [24] = Binding affinity to 5'-GGGGGGGG-3' DNA hairpin assessed as change in fluorescence intensity at 1 uM after 45 mins by fluorescence quenching analysis relative to control
# [25] = Binding affinity to 5'-GGCGCCGG-3' DNA hairpin assessed as change in fluorescence intensity at 1 uM after 45 mins by fluorescence quenching analysis relative to control
# [26] = Binding affinity to 5'-GCGGCGGG-3' DNA hairpin assessed as change in fluorescence intensity at 1 uM after 45 mins by fluorescence quenching analysis relative to control
# [27] = Binding affinity to 5'-CGGCCGCC-3' DNA hairpin assessed as change in fluorescence intensity at 1 uM after 45 mins by fluorescence quenching analysis relative to control
# [28] = Binding affinity to 5'-GGCCCCCC-3' DNA hairpin assessed as change in fluorescence intensity at 1 uM after 45 mins by fluorescence quenching analysis relative to control
# [29] = Binding affinity to 5'-CCCCCCCC-3' DNA hairpin assessed as change in fluorescence intensity at 1 uM after 45 mins by fluorescence quenching analysis relative to control
# [30] = Binding affinity to 5'-CGCGCCCC-3' DNA hairpin assessed as change in fluorescence intensity at 1 uM after 45 mins by fluorescence quenching analysis relative to control
# [31] = Binding affinity to 5'-CCGCCCGC-3' DNA hairpin assessed as change in fluorescence intensity at 1 uM after 45 mins by fluorescence quenching analysis relative to control
# [32] = Binding affinity to 5'-GGCGCGGG-3' DNA hairpin assessed as change in fluorescence intensity at 1 uM after 45 mins by fluorescence quenching analysis relative to control
# [33] = Binding affinity to 5'-CGCGCCGG-3' DNA hairpin assessed as change in fluorescence intensity at 1 uM after 45 mins by fluorescence quenching analysis relative to control
# [34] = Binding affinity to 5'-CGGGCCGC-3' DNA hairpin assessed as change in fluorescence intensity at 1 uM after 45 mins by fluorescence quenching analysis relative to control
# [35] = Binding affinity to 5'-GCCGCCCG-3' DNA hairpin assessed as change in fluorescence intensity at 1 uM after 45 mins by fluorescence quenching analysis relative to control
# [36] = Binding affinity to 5'-GGCCGCCG-3' DNA hairpin assessed as change in fluorescence intensity at 1 uM after 45 mins by fluorescence quenching analysis relative to control
structure (smiles),measurement,setting,value
NCC1O[C@H](O[C@H]2[C@@H](O)[C@H](O[C@@H]3[C@@H](O)[C@H](N)C[C@H](N)[C@H]3O[C@H]3O[C@H](CN)[C@@H](O)[C@H](O)[C@H]3N)O[C@@H]2CSCCNC(=O)CCSCC(=O)Nc2ccc(-c3c4ccc(=O)cc-4oc4cc(O)ccc34)c(C(=O)O)c2)[C@H](N)[C@@H](O)[C@@H]1O (stereo partly specified),Activity,[1],38.8%
same,Activity,[2],44%
same,Activity,[3],44.5%
same,Activity,[4],33.7%
same,Activity,[5],46.9%
same,Activity,[6],40.3%
same,Activity,[7],48.6%
same,Activity,[8],56.8%
same,Activity,[9],39.1%
same,Activity,[10],46.6%
same,Activity,[11],51.8%
same,Activity,[12],39.6%
same,Activity,[13],52.5%
same,Activity,[14],48.3%
same,Activity,[15],43.4%
same,Activity,[16],41.4%
same,Activity,[17],47.2%
same,Activity,[18],46.5%
same,Activity,[19],45%
same,Activity,[20],37.6%
same,Activity,[21],45.2%
same,Activity,[22],54.5%
same,Activity,[23],48.9%
same,Activity,[24],27.2%
same,Activity,[25],53.2%
same,Activity,[26],43.5%
same,Activity,[27],47.7%
same,Activity,[28],15%
same,Activity,[29],15%
same,Activity,[30],36.3%
same,Activity,[31],48.7%
same,Activity,[32],46.2%
same,Activity,[33],43.8%
same,Activity,[34],52.5%
same,Activity,[35],45.8%
same,Activity,[36],40.7%
